Reference: ChEMBL document CHEMBL1201862, “PubChem BioAssay data set” (2004)
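48-hour exposure; five concentrations; linearly interpolated endpoints. The concentration for 50% growth inhibition is given as GI50.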 The source made the active and inactive calls. Cut-off read from the data, not from the text of the source: active = GI50 up to about 1.1 µM and inactive = higher.

Legend:
Assay in all cases: growth of human tumour cells (NCI), 48 h
LOX IMVI = test system: LOX IMVI
K562 = test system: K562
HOP-62 = test system: HOP-62
RPMI-8226 = test system: RPMI-8226
TK-10 = test system: TK-10
SF-295 = test system: SF-295
M19-MEL = test system: M19-MEL
SN12C = test system: SN12C
OVCAR-3 = test system: OVCAR-3
SF-539 = test system: SF-539
SK-MEL-2 = test system: SK-MEL-2
786-0 = test system: 786-0
HOP-92 = test system: HOP-92
KM12 = test system: KM12
COLO 205 = test system: COLO 205
RXF 393 = test system: RXF 393
NCI-H23 = test system: NCI-H23
HCC 2998 = test system: HCC 2998
Hs-578T = test system: Hs-578T
MDA-N = test system: MDA-N

Compound: COc1ccc(C(=O)NCCC2=CCCCC2)cc1
- GI50 (LOX IMVI): > 100 µM (inactive)
- GI50 (K562): > 100 µM (inactive)
- GI50 (HOP-62): > 100 µM (inactive)
- GI50 (RPMI-8226): > 100 µM (inactive)
- GI50 (TK-10): > 100 µM (inactive)
- GI50 (SF-295): > 100 µM (inactive)
- GI50 (M19-MEL): > 100 µM (inactive)
- GI50 (SN12C): > 100 µM (inactive)
- GI50 (OVCAR-3): > 100 µM (inactive)
- GI50 (SF-539): > 100 µM (inactive)
- GI50 (SK-MEL-2): > 100 µM (inactive)
- GI50 (786-0): > 100 µM (inactive)
- GI50 (HOP-92): 78.5 µM (inactive)
- GI50 (KM12): > 100 µM (inactive)
- GI50 (COLO 205): > 100 µM (inactive)
- GI50 (RXF 393): > 100 µM (inactive)
- GI50 (NCI-H23): > 100 µM (inactive)

Compound: [O-][S+]1CSCS1 (stereo not drawn)
- GI50 (LOX IMVI): > 100 µM (inactive)
- GI50 (K562): > 100 µM (inactive)
- GI50 (HOP-62): > 100 µM (inactive)
- GI50 (TK-10): > 100 µM (inactive)
- GI50 (SF-295): > 100 µM (inactive)
- GI50 (M19-MEL): > 100 µM (inactive)
- GI50 (SN12C): > 100 µM (inactive)
- GI50 (OVCAR-3): > 100 µM (inactive)
- GI50 (HCC 2998): > 100 µM (inactive)
- GI50 (SF-539): > 100 µM (inactive)
- GI50 (SK-MEL-2): > 100 µM (inactive)
- GI50 (786-0): > 100 µM (inactive)
- GI50 (HOP-92): > 100 µM (inactive)
- GI50 (KM12): > 100 µM (inactive)
- GI50 (COLO 205): > 100 µM (inactive)
- GI50 (RXF 393): > 100 µM (inactive)
- GI50 (NCI-H23): > 100 µM (inactive)

Compound: Cc1cc(C23OC4COC(C)(C)OC4C2OC(C)(C)O3)nc2ccccc12 (stereo not drawn)
- GI50 (LOX IMVI): > 100 µM (inactive)
- GI50 (K562): 44.1 µM (inactive)
- GI50 (HOP-62): > 100 µM (inactive)
- GI50 (Hs-578T): 82.2 µM (inactive)
- GI50 (RPMI-8226): > 100 µM (inactive)
- GI50 (TK-10): > 100 µM (inactive)
- GI50 (SF-295): > 100 µM (inactive)
- GI50 (SN12C): > 100 µM (inactive)
- GI50 (OVCAR-3): > 100 µM (inactive)
- GI50 (HCC 2998): > 100 µM (inactive)
- GI50 (SF-539): > 100 µM (inactive)
- GI50 (SK-MEL-2): > 100 µM (inactive)
- GI50 (786-0): > 100 µM (inactive)
- GI50 (HOP-92): > 100 µM (inactive)
- GI50 (MDA-N): > 100 µM (inactive)
- GI50 (KM12): > 100 µM (inactive)
- GI50 (COLO 205): > 100 µM (inactive)
- GI50 (RXF 393): > 100 µM (inactive)
- GI50 (NCI-H23): > 100 µM (inactive)

Compound: O=C(c1nc2ccc(Cl)cc2[nH]c1=O)C(O)c1ccco1 (stereo not drawn)
- GI50 (LOX IMVI): 36.6 µM (inactive)
- GI50 (K562): 22.1 µM (inactive)
- GI50 (TK-10): > 100 µM (inactive)
- GI50 (SF-295): > 100 µM (inactive)
- GI50 (M19-MEL): > 100 µM (inactive)
- GI50 (OVCAR-3): 46 µM (inactive)
- GI50 (HCC 2998): 44 µM (inactive)
- GI50 (SF-539): 38.1 µM (inactive)
- GI50 (SK-MEL-2): 87.1 µM (inactive)
- GI50 (786-0): > 100 µM (inactive)
- GI50 (HOP-92): > 100 µM (inactive)
- GI50 (COLO 205): > 100 µM (inactive)
- GI50 (RXF 393): > 100 µM (inactive)
- GI50 (NCI-H23): > 100 µM (inactive)

Compound: C#Cc1cccc(N2C(=O)CC(=P(c3ccccc3)(c3ccccc3)c3ccccc3)C2=O)c1
- GI50 (K562): 35.4 µM (inactive)
- GI50 (HOP-62): 67.1 µM (inactive)
- GI50 (RPMI-8226): 6.4 µM (inactive)
- GI50 (TK-10): > 100 µM (inactive)
- GI50 (SF-295): > 100 µM (inactive)
- GI50 (M19-MEL): 42.9 µM (inactive)
- GI50 (SN12C): > 100 µM (inactive)
- GI50 (OVCAR-3): 31.5 µM (inactive)
- GI50 (HCC 2998): 70.8 µM (inactive)
- GI50 (SK-MEL-2): 84.7 µM (inactive)
- GI50 (786-0): 24.5 µM (inactive)
- GI50 (COLO 205): 44.9 µM (inactive)
- GI50 (NCI-H23): 40.7 µM (inactive)

Compound: CCCS(=O)OC1C(C2COC(C)(C)O2)OC2OC(C)(C)OC21 (stereo not drawn)
- GI50 (LOX IMVI): 6.43 µM (inactive)
- GI50 (K562): 5.65 µM (inactive)
- GI50 (HOP-62): 13.6 µM (inactive)
- GI50 (Hs-578T): 4.46 µM (inactive)
- GI50 (RPMI-8226): 2.88 µM (inactive)
- GI50 (TK-10): 16.2 µM (inactive)
- GI50 (SF-295): 15.1 µM (inactive)
- GI50 (SN12C): 12.5 µM (inactive)
- GI50 (OVCAR-3): 15.1 µM (inactive)
- GI50 (HCC 2998): 16.5 µM (inactive)
- GI50 (SF-539): 10.3 µM (inactive)
- GI50 (SK-MEL-2): 16.1 µM (inactive)
- GI50 (786-0): 13.2 µM (inactive)
- GI50 (HOP-92): 5.87 µM (inactive)
- GI50 (MDA-N): 15.1 µM (inactive)
- GI50 (KM12): 13.1 µM (inactive)
- GI50 (COLO 205): 11.7 µM (inactive)
- GI50 (RXF 393): 9.59 µM (inactive)
- GI50 (NCI-H23): 7.26 µM (inactive)

Compound: C[C@@H]1CCC2[C@@H](C)[C@@H](O[C@H]3O[C@@H]4O[C@@]5(C)CCC6[C@H](C)CCC([C@H]3C)[C@]64OO5)O[C@@H]3O[C@@]4(C)CCC1[C@@]23OO4 (stereo partly drawn)
- GI50 (LOX IMVI): 0.973 µM (active)
- GI50 (K562): 1.04 µM (active)
- GI50 (HOP-62): > 25 µM (inactive)
- GI50 (Hs-578T): 7.05 µM (inactive)
- GI50 (RPMI-8226): 0.586 µM (active)
- GI50 (TK-10): > 20 µM (inactive)
- GI50 (SF-295): > 16.7 µM (inactive)
- GI50 (SN12C): 16.7 µM (inactive)
- GI50 (OVCAR-3): 7.45 µM (inactive)
- GI50 (HCC 2998): > 25 µM (inactive)
- GI50 (SF-539): > 5.51 µM (inactive)
- GI50 (SK-MEL-2): 16 µM (inactive)
- GI50 (786-0): 21.9 µM (inactive)
- GI50 (HOP-92): 3.63 µM (inactive)
- GI50 (MDA-N): 2.65 µM (inactive)
- GI50 (KM12): 0.865 µM (active)
- GI50 (COLO 205): 1.17 µM (inactive)
- GI50 (RXF 393): > 12.6 µM (inactive)
- GI50 (NCI-H23): 1.1 µM (active)

Compound: CC1OC(O[C@H]2CC[C@]3(C=O)[C@H]4CC[C@]5(C)[C@H](C6=CC(=O)OC6)CC[C@]5(O)[C@@H]4C=C[C@]3(O)C2)CC(O)C1O (stereo partly drawn)
- GI50 (LOX IMVI): 0.292 µM (active)
- GI50 (K562): 0.294 µM (active)
- GI50 (HOP-62): 0.188 µM (active)
- GI50 (Hs-578T): 0.239 µM (active)
- GI50 (RPMI-8226): 0.136 µM (active)
- GI50 (TK-10): 0.29 µM (active)
- GI50 (SF-295): 0.13 µM (active)
- GI50 (SN12C): 0.117 µM (active)
- GI50 (OVCAR-3): 0.15 µM (active)
- GI50 (HCC 2998): 0.836 µM (active)
- GI50 (SF-539): 0.169 µM (active)
- GI50 (SK-MEL-2): 0.505 µM (active)
- GI50 (786-0): 0.0871 µM (active)
- GI50 (HOP-92): 0.577 µM (active)
- GI50 (MDA-N): 0.332 µM (active)
- GI50 (KM12): 0.676 µM (active)
- GI50 (COLO 205): 0.675 µM (active)
- GI50 (RXF 393): 0.0661 µM (active)
- GI50 (NCI-H23): 0.143 µM (active)

Compound: CC12N=NN(c3ccc([N+](=O)[O-])cc3)C1(O)c1ccccc1C2=O (stereo not drawn)
- GI50 (LOX IMVI): > 100 µM (inactive)
- GI50 (HOP-62): > 100 µM (inactive)
- GI50 (RPMI-8226): > 100 µM (inactive)
- GI50 (TK-10): > 100 µM (inactive)
- GI50 (SF-295): > 100 µM (inactive)
- GI50 (M19-MEL): > 100 µM (inactive)
- GI50 (SN12C): > 100 µM (inactive)
- GI50 (OVCAR-3): > 100 µM (inactive)
- GI50 (HCC 2998): > 100 µM (inactive)
- GI50 (SF-539): 70.1 µM (inactive)
- GI50 (786-0): > 100 µM (inactive)
- GI50 (KM12): > 100 µM (inactive)
- GI50 (COLO 205): > 100 µM (inactive)
- GI50 (RXF 393): > 100 µM (inactive)
- GI50 (NCI-H23): > 100 µM (inactive)

Compound: CN(C)CCNC(=O)c1cccc2c1nc(-c1ccccn1)c1ccccc12
- GI50 (LOX IMVI): > 10 µM (inactive)
- GI50 (K562): 16.9 µM (inactive)
- GI50 (HOP-62): 15.1 µM (inactive)
- GI50 (TK-10): > 10 µM (inactive)
- GI50 (SF-295): 17.6 µM (inactive)
- GI50 (M19-MEL): 18.1 µM (inactive)
- GI50 (SN12C): 23.9 µM (inactive)
- GI50 (OVCAR-3): 17.4 µM (inactive)
- GI50 (HCC 2998): 15.7 µM (inactive)
- GI50 (SF-539): 16.4 µM (inactive)
- GI50 (SK-MEL-2): 18.8 µM (inactive)
- GI50 (786-0): 18.9 µM (inactive)
- GI50 (HOP-92): 18.6 µM (inactive)
- GI50 (KM12): 28.3 µM (inactive)
- GI50 (COLO 205): 12.3 µM (inactive)
- GI50 (RXF 393): 14.6 µM (inactive)
- GI50 (NCI-H23): 15.7 µM (inactive)

Compound: CO[C@H]1C[C@@H]2CC[C@@H](C)[C@@](O)(O2)C(=O)C(=O)N2CCCC[C@H]2C(=O)O[C@H]([C@H](C)C[C@@H]2CC[C@@H](OC(=O)C(C)(CO)CO)[C@H](OC)C2)CC(=O)[C@H](C)/C=C(\C)[C@@H](O)[C@@H](OC)C(=O)[C@H](C)C[C@H](C)/C=C/C=C/C=C/1C [TEMSIROLIMUS]
- GI50 (LOX IMVI): 0.00327 µM (active)
- GI50 (K562): 0.0228 µM (active)
- GI50 (HOP-62): 0.00125 µM (active)
- GI50 (Hs-578T): 0.00724 µM (active)
- GI50 (RPMI-8226): 0.000292 µM (active)
- GI50 (TK-10): 0.00262 µM (active)
- GI50 (SF-295): 0.000557 µM (active)
- GI50 (SN12C): 0.00607 µM (active)
- GI50 (OVCAR-3): 0.00183 µM (active)
- GI50 (HCC 2998): 1.82 µM (inactive)
- GI50 (SF-539): 0.00873 µM (active)
- GI50 (SK-MEL-2): 0.051 µM (active)
- GI50 (786-0): 0.00312 µM (active)
- GI50 (HOP-92): 0.00254 µM (active)
- GI50 (MDA-N): 4.03 µM (inactive)
- GI50 (KM12): 0.0264 µM (active)
- GI50 (COLO 205): 3.98 µM (inactive)
- GI50 (RXF 393): 0.0034 µM (active)
- GI50 (NCI-H23): 0.00501 µM (active)
